24 compounds from patent US11590109B2 (priority 2016, dated 2023) can be followed below.

In series [1] the test system is H3N2 (influenza virus). Kind of series: microbe, parasite or virus in culture. Particulars: Influenza A virus, H3N2, MDCK, H3N2 in host cell MDCK, CPE.
The subject of series [2] is H1N1 (influenza virus). The series is described as follows: microbe, parasite or virus in culture. Particulars: Influenza A virus, H1N1, MDCK, H1N1 in host cell MDCK, CPE.
Another series is described as follows: in vitro. The note with it: dog.
For series [3], the system named is H1N1 (influenza virus). The note with it: H1N1 in host cell MDCK.
In series [4] the test system is H3N2 (influenza virus). Particulars: H3N2 in host cell MDCK.
The next series has as its system H7N9 (influenza virus). Kind of series: microbe, parasite or virus in culture. The note with it: Influenza A virus, H7N9, MDCK.
The mark [5] stands for this setting: TC50, host cell MDCK, H1N1 table.
[6] abbreviates: TC50, host cell MDCK, H3N2 table.

As for `CCCN(/N=C/c1ccccc1C(=O)O)c1nc(-c2ccccc2Cl)cs1` [Compound 3, (E)-4-(2-chlorophenyl)-2-[1-propyl-2-(2-carboxybenzylidene)hydrazino]thiazole], the values for the half-maximal inhibitory concentration (IC50) with H3N2 (influenza virus) [1] and in the series with H1N1 (influenza virus) [2] were 25 µM and 12.3 µM, respectively. In addition, the CC50 is 86 µM in “in vitro” (setting [5]) and 52 µM in “in vitro” (setting [6]). Further, the “SI (TC50/IC50)” value is listed as 7 with H1N1 (influenza virus) [3] and 2.08 in the series on H3N2 (influenza virus) [4].

`CC(C)N(/N=C/c1ccccc1C(=O)O)c1nc(-c2ccccc2Cl)cs1` [Compound 4, (E)-4-(2-chlorophenyl)-2-[1-isopropyl-2-(2-carboxybenzylidene)hydrazino]thiazole]: the IC50 with H3N2 (influenza virus) [1] worked out at 112 µM; in the series with H1N1 (influenza virus) [2] it was 2.6 µM. In addition, the CC50 is 23 µM in the series “in vitro” (setting [5]) and 35 µM in “in vitro” (setting [6]). Also, the “SI (TC50/IC50)” value in the series on H1N1 (influenza virus) [3] came out at 8.8; in the series on H3N2 (influenza virus) [4], 0.31.

With `CCC(C)N(/N=C/c1ccccc1C(=O)O)c1nc(-c2ccccc2Cl)cs1` (stereo not drawn) [Compound 5, (E)-4-(2-chlorophenyl)-2-[1-(2-butyl)-2-(2-carboxybenzylidene)hydrazino]thiazole], the IC50 with H3N2 (influenza virus) [1] came to 243 µM; in the series on H1N1 (influenza virus) [2], 52 µM. In addition, the CC50 in “in vitro” (setting [5]) is 68 µM; in “in vitro” (setting [6]) it was 89 µM. The “SI (TC50/IC50)” value in the series with H1N1 (influenza virus) [3] was determined as 1.3; in the series with H3N2 (influenza virus) [4] it was 0.37.

On to `CCCC(C)N(/N=C/c1ccccc1C(=O)O)c1nc(-c2ccccc2Cl)cs1` (stereo not drawn) [Compound 6, (E)-4-(2-chlorophenyl)-2-[1-(2-amyl)-2-(2-carboxybenzylidene)hydrazino]thiazole], for which the IC50 was 554 µM in the series on H3N2 (influenza virus) [1] and 124 µM in the series with H1N1 (influenza virus) [2]. In addition, the CC50 was determined as 451 µM in the series “in vitro” (setting [5]) and 97 µM in “in vitro” (setting [6]). In addition, the results for the “SI (TC50/IC50)” value in the series with H1N1 (influenza virus) [3] and in the series on H3N2 (influenza virus) [4] were 2 and 0.18, respectively.

As for `O=C(O)c1ccccc1/C=N/N(CCO)c1nc(-c2ccccc2Cl)cs1` [Compound 7], the IC50 with H3N2 (influenza virus) [1] was 248 µM; in the series with H1N1 (influenza virus) [2], 221 µM. The CC50 in the series “in vitro” (setting [5]) was 355 µM; in the series “in vitro” (setting [6]), 124 µM. Besides, the “SI (TC50/IC50)” value in the series with H1N1 (influenza virus) [3] is given as 1.6; in the series on H3N2 (influenza virus) [4], 0.5.

In the case of `Cc1ccc(/C=N/N(C)c2nc(-c3ccccc3)c(C)s2)c(C(=O)O)c1` [Compound 11, (E)-5-methyl-4-phenyl-2-[1-methyl-2-(4-methyl-2-carboxybenzylidene)hydrazino]thiazole], the IC50 in the series with H7N9 (influenza virus) was found to be 14 µM; in the series on H3N2 (influenza virus) [1], 86 µM; with H1N1 (influenza virus) [2] it was 5.1 µM. Moreover, the results for the CC50 in the series “in vitro” (TC50), in “in vitro” (setting [5]) and in “in vitro” (setting [6]) were 54 µM, 241 µM and 234 µM, respectively. Besides, the “SI (TC50/IC50)” value is listed as 47 with H1N1 (influenza virus) [3] and 2.72 in the series with H3N2 (influenza virus) [4].

As for `Cc1sc(N(C)/N=C/c2ccccc2C(=O)O)nc1-c1ccccc1Cl` [Compound 13], the IC50 came to 114 µM in the series on H3N2 (influenza virus) [1] and 65 µM in the series with H1N1 (influenza virus) [2]. Besides, the CC50 in the series “in vitro” (setting [5]) was 87 µM; in the series “in vitro” (setting [6]) it was 373 µM. Besides, the entries for the “SI (TC50/IC50)” value in the series on H1N1 (influenza virus) [3] and in the series with H3N2 (influenza virus) [4] were 1.3 and 3.27, respectively.

For the compound `CCc1sc(N/N=C/c2ccccc2C(=O)O)nc1-c1ccccc1Cl` [Compound 14, (E)-5-ethyl-4-(2-chlorophenyl)-2-(2-carboxylbenzylidenehydrazino)thiazole], the values for the half-maximal inhibitory concentration (IC50) in the series with H3N2 (influenza virus) [1] and in the series with H1N1 (influenza virus) [2] were 550 µM and 41 µM, respectively. Moreover, the CC50 in “in vitro” (setting [5]) was found to be 88 µM; in the series “in vitro” (setting [6]), 91 µM. Moreover, the “SI (TC50/IC50)” value with H1N1 (influenza virus) [3] worked out at 2.1; in the series on H3N2 (influenza virus) [4] it was 0.16.

Consider `Cc1sc(N/N=C/c2ccccc2C(=O)O)nc1-c1ccccc1Cl` [Compound 15, (E)-5-methyl-4-(2-chlorophenyl)-2-(2-carboxylbenzylidenehydrazino)thiazole], for which the IC50 was 351 µM in the series with H3N2 (influenza virus) [1] and 124 µM in the series with H1N1 (influenza virus) [2]. Also, the values for the CC50 in the series “in vitro” (setting [5]) and in the series “in vitro” (setting [6]) were 412 µM and 88 µM, respectively. For the same compound, in the series with H1N1 (influenza virus) [3], the “SI (TC50/IC50)” value is recorded as 3.3.

With `Cc1sc(N/N=C/c2ccccc2C(=O)O)nc1-c1ccccc1` [Compound 17, (E)-5-methyl-4-phenyl-2-(2-carboxylbenzylidenehydrazino)thiazole], the 50% inhibitory concentration (IC50) with H3N2 (influenza virus) [1] turned out to be 1.5 µM; in the series on H1N1 (influenza virus) [2], 8.1 µM. Besides, the CC50 turned out to be 561 µM in “in vitro” (setting [5]) and 94 µM in the series “in vitro” (setting [6]). For the same compound, the “SI (TC50/IC50)” value was determined as 7 in the series with H1N1 (influenza virus) [3] and 62.6 with H3N2 (influenza virus) [4].

Take `O=C(O)c1ccccc1/C=N/Nc1nc(-c2ccccc2)cs1` [Compound 18, (E)-4-phenyl-2-(2-carboxybenzylidenehydrazino)thiazole]: the IC50 with H3N2 (influenza virus) [1] turned out to be 45 µM; with H1N1 (influenza virus) [2] it was 10.2 µM. Further, the CC50 was determined as 124 µM in the series “in vitro” (setting [5]) and 148 µM in “in vitro” (setting [6]). The “SI (TC50/IC50)” value was 12 in the series with H1N1 (influenza virus) [3] and 3.3 in the series with H3N2 (influenza virus) [4].

Consider `CN(/N=C/c1ccccc1C(=O)O)c1nc(-c2cc(Cl)ccc2Cl)cs1` [Compound 19, (E)-4-(2,5-dichlorophenyl)-2-[1-methyl-2-(2-carboxybenzylidene)hydrazino]thiazole], for which the IC50 in the series with H3N2 (influenza virus) [1] amounted to 0.9 µM; in the series with H1N1 (influenza virus) [2], 0.56 µM. Further, the values for the CC50 in the series “in vitro” (setting [5]) and in “in vitro” (setting [6]) were 26 µM and 43 µM, respectively. Besides, the “SI (TC50/IC50)” value in the series on H1N1 (influenza virus) [3] came to 46; in the series with H3N2 (influenza virus) [4], 47.8.

With `CN(/N=C/c1ccccc1C(=O)O)c1nc(-c2ccccc2)cs1` [Compound 20, (E)-4-phenyl-2-[1-methyl-2-(2-carboxybenzylidene)hydrazino]thiazole], the IC50 in the series on H3N2 (influenza virus) [1] was 5.2 µM; with H1N1 (influenza virus) [2], 2.5 µM. The CC50 in the series “in vitro” (setting [5]) and in the series “in vitro” (setting [6]) was 57 µM throughout. Also, the “SI (TC50/IC50)” value is given as 22.8 in the series on H1N1 (influenza virus) [3] and 11 in the series with H3N2 (influenza virus) [4].

On to `CN(/N=C/c1ccccc1C(=O)O)c1nc(-c2cccc(Cl)c2)cs1` [Compound 21, (E)-4-(3-chlorophenyl)-2-[1-methyl-2-(2-carboxybenzylidene)hydrazino]thiazole], for which the IC50 in the series on H3N2 (influenza virus) [1] amounted to 2.5 µM; in the series on H1N1 (influenza virus) [2], 5.4 µM. The CC50 in “in vitro” (setting [5]) amounted to 41 µM; in “in vitro” (setting [6]), 49 µM. In addition, the entries for the “SI (TC50/IC50)” value with H1N1 (influenza virus) [3] and in the series with H3N2 (influenza virus) [4] were 7.6 and 19.6, respectively.

Turning to `CCCC(C)N(/N=C/c1ccccc1C(=O)O)c1nc(-c2ccccc2Cl)c(C)s1` (stereo not drawn) [Compound 22, (E)-5-methyl-4-(2-chlorophenyl)-2-[1-(2-amyl)-2-(2-carboxybenzylidene)hydrazino]thiazole], the IC50 in the series on H3N2 (influenza virus) [1] was 248 µM; with H1N1 (influenza virus) [2] it was 55 µM. The CC50 in “in vitro” (setting [5]) was determined as 148 µM; in “in vitro” (setting [6]), 415 µM. Also, the “SI (TC50/IC50)” value is given as 2.7 in the series with H1N1 (influenza virus) [3] and 1.6 with H3N2 (influenza virus) [4].

As to `CN(/N=C/c1cc(F)c(F)cc1C(=O)O)c1nc(-c2ccccc2Cl)cs1` [Compound 23], the IC50 in the series with H7N9 (influenza virus) came out at 0.35 µM; with H1N1 (influenza virus) [2], 0.39 µM. For the same compound, the CC50 in the series “in vitro” (TC50) stood at 54 µM; in “in vitro” (setting [5]) it was 87 µM. In addition, in the series with H1N1 (influenza virus) [3], the “SI (TC50/IC50)” value worked out at 223.

For the compound `CN(/N=C/c1cc(O)c(F)cc1C(=O)O)c1nc(-c2ccccc2Cl)cs1` [Compound 24], the figures for the IC50 in the series on H3N2 (influenza virus) [1] and in the series on H1N1 (influenza virus) [2] were 152 µM and 325 µM, respectively.

On to `CN(/N=C/c1cc(N)c(F)cc1C(=O)O)c1nc(-c2ccccc2Cl)cs1` [Compound 25], for which the figures for the half-inhibitory concentration (IC50) with H3N2 (influenza virus) [1] and in the series on H1N1 (influenza virus) [2] were 742 µM and 485 µM, respectively.

Take `COc1cccc(-c2csc(N/N=C/c3ccccc3C(=O)O)n2)c1` [Compound 52, (E)-2-((2-(4-(3-methoxyphenyl)thiazol-2-yl)hydrazono)methyl)benzoic Acid]: the results for the IC50 in the series with H3N2 (influenza virus) [1] and with H1N1 (influenza virus) [2] were 147 µM and 1240 µM, respectively.

In the case of `NC(=O)c1cccc(-c2csc(N/N=C/c3ccccc3C(=O)O)n2)c1` [Compound 53, (E)-2-((2-(4-(3-aminoformylphenyl)thiazol-2-yl)hydrazono)methyl)benzoic Acid], the results for the IC50 in the series on H3N2 (influenza virus) [1] and in the series on H1N1 (influenza virus) [2] were 216 µM and 781 µM, respectively.

As to `Cc1ccc(-c2csc(N/N=C/c3ccccc3C(=O)O)n2)cc1` [Compound 54, (E)-2-((2-(4-(p-tolyl)thiazol-2-yl)hydrazono)methyl)benzoic Acid], the values for the IC50 in the series on H3N2 (influenza virus) [1] and with H1N1 (influenza virus) [2] were 326 µM and 112 µM, respectively.

For the compound `O=C(O)c1ccccc1/C=N/Nc1nc(-c2ccc3ccccc3c2)cs1` [Compound 56, (E)-2-((2-(4-(naphthalen-2-yl)thiazol-2-yl)hydrazono)methyl)benzoic Acid], the IC50 turned out to be 549 µM with H3N2 (influenza virus) [1] and 2310 µM with H1N1 (influenza virus) [2].

`O=C(O)c1ccccc1/C=N/Nc1nc(-c2ccc(-c3ccccc3)cc2)cs1` [Compound 57, (E)-2-((2-(4-(biphenyl-4-yl)thiazol-2-yl)hydrazono)methyl)benzoic Acid]: the IC50 in the series on H3N2 (influenza virus) [1] was 4430 µM; with H1N1 (influenza virus) [2], 1290 µM.

Consider `O=C(O)c1c(F)cccc1/C=N/Nc1nc(-c2ccccc2Cl)cs1` [Compound 58, (E)-2-((2-(4-(2-chlorophenyl)thiazol-2-yl)hydrazono)methyl)-6-fluorobenzoic Acid], for which the IC50 with H3N2 (influenza virus) [1] was determined as 365 µM; in the series on H1N1 (influenza virus) [2], 5.6 µM. Moreover, the CC50 in the series “in vitro” (setting [5]) turned out to be 254 µM. Besides, in the series with H1N1 (influenza virus) [3], the “SI (TC50/IC50)” value is reported as 45.
